The text below walks through data of patent US20230017045A1, “PYRIDINE AND PYRIMIDINE CARBOXYLATE HERBICIDES AND METHODS OF USE THEREOF” (Dow AgroSciences LLC, priority 2017, published 2023).

Read-outs that look alike come from different tables or passages of the source.

The subject of the test is test plant species. Briefly: Post-emergent herbicidal activity test (greenhouse, foliar spray, visual growth reduction). Format: in vivo. The note with it: post-emergence, 336 h, 140 g ai/ha, 14 days after application. As to the method:
Post-emergent Test: Seeds or nutlets of the desired test plant species were planted in Sun Gro Metro-Mix® 360 planting mixture, which typically has a pH of 6.0 to 6.8 and an organic matter content of about 30 percent, in plastic pots with a surface area of 64 square centimeters. In some aspects, to ensure good germination and healthy plants, a fungicide treatment and/or other chemical or physical treatment was applied. The plants were grown for 7-21 d in a greenhouse with an approximate 15 h photoperiod which was maintained at 23-29° C. during the day and 22-28° C. during the night. Nutrients and water were added on a regular basis and supplemental lighting was provided with overhead metal halide 1000-Watt lamps as necessary. Plants were used for testing when they reached the first or second true leaf stage. A weighed amount, determined by the highest rate to be tested, of each test compound was placed in a 25 mL glass vial and was dissolved in 4 mL of a 97:3 v/v mixture of acetone and DMSO to obtain concentrated stock solutions. […] The concentrated stock solutions obtained were diluted with 20 mL of an aqueous mixture containing acetone, water, isopropyl alcohol, DMSO, […] crop oil concentrate, and X-77 surfactant in a 48.5:39:10:1.5:1.0:0.02 v/v ratio to obtain spray solutions containing the application rate. Compound requirements are based upon a 12 mL application volume at a rate of 187 liters per hectare (L/ha). Formulated compounds were applied to the plant material with an overhead Mandel track sprayer equipped with […] nozzles calibrated to deliver 187 L/ha over an application area of 0.64 square meters at a spray height of 18 inches (43 cm) above the average plant canopy height. Control plants were sprayed in the same manner with the solvent blank. The treated plants and control plants were placed in a greenhouse as described above and watered by subirrigation to prevent wash-off of the test compounds. After 14 d, the condition of the test plants as compared with that of the nontreated and control plants was determined visually and scored on a scale of 0 to 100 percent where 0 corresponds to no injury and 100 corresponds to complete control. In the reporting of the results, Table A: Percent Growth Reduction Conversion Table was used.

Where [1] appears, read: ALOMY: blackgrass (Alopecurus myosuroides), read-out: Visual Growth Reduction (%) 14 Days After Application, ALOMY.
[2] abbreviates: AVEFA: wild oat (Avena fatua), read-out: Visual Growth Reduction (%) 14 Days After Application, AVEFA.
The mark [3] stands for this setting: CHEAL: lambsquarters (Chenopodium album), read-out: Visual Growth Reduction (%) 14 Days After Application, CHEAL.
The mark [4] stands for this setting: CIRAR: canada thistle (Cirsium arvense), read-out: Visual Growth Reduction (%) 14 Days After Application, CIRAR.
The mark [5] stands for this setting: CYPES: yellow nutsedge (Cyperus esculentus), read-out: Visual Growth Reduction (%) 14 Days After Application, CYPES.
Setting [6] is: DIGSA: crabgrass (Digitaria sanguinalis), read-out: Visual Growth Reduction (%) 14 Days After Application, DIGSA.
Setting [7] is: ECHCG: barnyardgrass (Echinochloa crus-galli), read-out: Visual Growth Reduction (%) 14 Days After Application, ECHCG.
Where [8] appears, read: IPOHE: ivy-leaf morning glory (Ipomoea hederacea), read-out: Visual Growth Reduction (%) 14 Days After Application, IPOHE.
The mark [9] stands for this setting: ORYSA: rice (Oryza sativa), read-out: Visual Growth Reduction (%) 14 Days After Application, ORYSA.
Setting [10] is: SETFA: giant foxtail (Setaria faberi), read-out: Visual Growth Reduction (%) 14 Days After Application, SETFA.
The mark [11] stands for this setting: SORVU: grain sorghum (Sorghum vulgare), read-out: Visual Growth Reduction (%) 14 Days After Application, SORVU.
[12] abbreviates: STEME: common chickweed (Stellaria media), read-out: Visual Growth Reduction (%) 14 Days After Application, STEME.
Setting [13] is: TRZAS: wheat, spring (Triticum aestivum), read-out: Visual Growth Reduction (%) 14 Days After Application, TRZAS.
The mark [14] stands for this setting: AMARE: redroot pigweed (Amaranthus retroflexus), read-out: Visual Growth Reduction (%) 14 Days After Application, AMARE.
[15] abbreviates: KCHSC: kochia (Bassia scoparia), read-out: Visual Growth Reduction (%) 14 Days After Application, KCHSC.

`CCOC(=O)c1nc(-c2ccc(Cl)c(OC)c2F)cc(OCC)c1N` [F77, ethyl 3-amino-6-(4-chloro-2-fluoro-3-methoxyphenyl)-4-ethoxypicolinate]: the pest or weed control at 140 g/ha runs as follows: under setting [1], 0 to 29%; under setting [2], 0 to 29%; under setting [3], 45 to 59%; under setting [4], 0 to 29%; under setting [5], 0 to 29%; under setting [6], 0 to 29%. In addition, the pest or weed control at 140 g/ha runs as follows: under setting [7], 0 to 29%; under setting [8], 0 to 29%; under setting [9], 0 to 29%; under setting [10], 0 to 29%; under setting [11], 0 to 29%; under setting [12], 0 to 29%. Besides, the pest or weed control at 140 g/ha under setting [13] lay in the range of 0 to 29%.

`COc1c(Cl)ccc(-c2ccc(Cl)c(C(=O)O)n2)c1F` [F78, 3-chloro-6-(4-chloro-2-fluoro-3-methoxyphenyl)picolinic acid]: the pest or weed control at 140 g/ha lay in the range of 0 to 29% under setting [1]; 45 to 59% under setting [14]; 0 to 29% under setting [2]; 75 to 84% under setting [3]; 60 to 74% under setting [4]; 0 to 29% under setting [5]. Further, the pest or weed control at 140 g/ha is, setting by setting: under setting [6], 0 to 29%; under setting [7], 0 to 29%; under setting [8], 45 to 59%; under setting [9], 0 to 29%; under setting [10], 0 to 29%; under setting [11], 0 to 29%. Moreover, the pest or weed control at 140 g/ha is, setting by setting: under setting [12], 30 to 44%; under setting [13], 0 to 29%.

`O=C(OCc1cccnc1)c1nc(-c2ccc(C(F)(F)F)cc2Cl)ccc1Cl` [F79, Pyridin-3-ylmethyl 3-chloro-6-(2-chloro-4-(trifluoromethyl)phenyl)picolinate]: the pest or weed control at 140 g/ha under setting [1] lay in the range of 60 to 74%; the pest or weed control at 140 g/ha under setting [14] fell in the range of 95 to 100%; the pest or weed control at 140 g/ha under setting [2] lay in the range of 75 to 84%; the pest or weed control at 140 g/ha under setting [3] was 95 to 100%; the pest or weed control at 140 g/ha under setting [4] lay within 85 to 94%; the pest or weed control at 140 g/ha under setting [5] was 0 to 29%. Also, the pest or weed control at 140 g/ha was 95 to 100% under setting [6]; 95 to 100% under setting [7]; 95 to 100% under setting [8]; 95 to 100% under setting [15]; 30 to 44% under setting [9]; 95 to 100% under setting [10]. For the same compound, the pest or weed control at 140 g/ha is, setting by setting: under setting [11], 95 to 100%; under setting [12], 0 to 29%; under setting [13], 75 to 84%.

In the case of `COC(=O)c1nc(-c2ccc(Cl)cc2)cc(Cl)c1Cl` [F80, Methyl 3,4-dichloro-6-(4-chlorophenyl) picolinate], the pest or weed control at 140 g/ha lay in the range of 0 to 29% under setting [1]; 60 to 74% under setting [14]; 0 to 29% under setting [2]; 30 to 44% under setting [3]; 0 to 29% under setting [4]; 0 to 29% under setting [5]. For the same compound, the pest or weed control at 140 g/ha is, setting by setting: under setting [6], 0 to 29%; under setting [7], 0 to 29%; under setting [8], 45 to 59%; under setting [9], 0 to 29%; under setting [10], 0 to 29%; under setting [11], 0 to 29%. In addition, the pest or weed control at 140 g/ha was in the range of 0 to 29% under setting [12] and 0 to 29% under setting [13].

`O=C(OCc1ccncc1)c1nc(-c2ccc(C(F)(F)F)cc2Cl)ccc1Cl` [F81, Pyridin-4-ylmethyl 3-chloro-6-(2-chloro-4-(trifluoromethyl)phenyl)picolinate]: the pest or weed control at 140 g/ha is, setting by setting: under setting [1], 60 to 74%; under setting [14], 95 to 100%; under setting [2], 60 to 74%; under setting [3], 75 to 84%; under setting [4], 95 to 100%; under setting [5], 0 to 29%. The pest or weed control at 140 g/ha by setting is: under setting [6], 95 to 100%; under setting [7], 95 to 100%; under setting [8], 95 to 100%; under setting [15], 95 to 100%; under setting [9], 60 to 74%; under setting [10], 95 to 100%. Moreover, the pest or weed control at 140 g/ha is, setting by setting: under setting [11], 85 to 94%; under setting [12], 0 to 29%; under setting [13], 75 to 84%.

Take `COC(=O)c1nc(-c2ccc(Cl)cc2)ccc1Cl` [F82, methyl 3-chloro-6-(4-chlorophenyl)picolinate]: the pest or weed control at 140 g/ha runs as follows: under setting [1], 0 to 29%; under setting [14], 95 to 100%; under setting [2], 0 to 29%; under setting [3], 60 to 74%; under setting [4], 75 to 84%; under setting [5], 75 to 84%. For the same compound, the pest or weed control at 140 g/ha under setting [6] fell in the range of 0 to 29%; the pest or weed control at 140 g/ha under setting [7] is 0 to 29%; the pest or weed control at 140 g/ha under setting [8] was 75 to 84%; the pest or weed control at 140 g/ha under setting [15] is 60 to 74%; the pest or weed control at 140 g/ha under setting [9] fell in the range of 0 to 29%; the pest or weed control at 140 g/ha under setting [11] lay in the range of 0 to 29%. For the same compound, the pest or weed control at 140 g/ha under setting [12] lay within 30 to 44%.
